Where two headings read alike, the source gives them in different places.

In data set [1] the test system is human lymphoblastic leukemia cell line (CCRF-CEM). The experiment in a line: in vitro cytotoxicity, PrestoBlue assay. To be noted: 72-hr incubation; mean ± STDEV of three to six experiments; read-out: IC50 CCRF-CEM. It is filed as cell-based. The method in brief: (§1)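 Cells exposed to compounds for 72 hr, then viability read by PrestoBlue after 1-2 hr at 37° C, absorbance 570 and 600 nm.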

Data set [2] can be described thus: body weight changes of xenograft-bearing nude mice. The class given is in vivo. The conditions noted are these: for deleterious effects on the bodyweight of the test animals: micelle formulation, FIG. 12, panel B. As for the experimental part:
Athymic nude mice bearing the nu/nu gene were obtained from the National Laboratory Animal Center (Taipei, Taiwan). Male nude mice (6 weeks or older weighing 20-24 g or more) were used for all human tumor xenografts. The tested compounds were intravenously administered through tail vein. Tumor volume was determined by measuring the length x width x height (or width) with calipers. The vehicle used for the tested compounds was normal saline (0.9% NaCl isotonic solution). For tumor-bearing nude mice during the course of the experiment, the % body weight changes refer to: (the total weight on reading day/the total weight on day treatment started)×100.

Data set [3] concerns non-small cell lung cancer H460. The data set can be described thus: in vitro cytotoxicity, PrestoBlue assay. The class given is cell-based, human. The conditions noted are these: Table 2. In outline:
as §1

The test system of data set [4] is vinblastine-resistant sub-cell line (CCRF-CEM/VBL). The experiment in a line: in vitro cytotoxicity, PrestoBlue assay. The class given is cell-based, human. The conditions noted are these: for IC50: 72-hr incubation, mean ± STDEV of three to six experiments, read-out: IC50 CEM/VBL; for resistance factor (IC50 CEM/VBL vs IC50 of the parent cell line): number in brackets. In outline:
as §1

The test system of data set [5] is colon cancer HCT-116. The experiment in a line: in vitro cytotoxicity, PrestoBlue assay. It is filed as cell-based, human. To be noted: Table 2. In outline:
as §1

Data set [6] has as its system pancreatic cancer PacaS1. The experiment in a line: in vitro cytotoxicity, PrestoBlue assay. It is filed as cell-based, human. The conditions noted are these: Table 2. The method in brief: as §1
Data set [7] deals with human SCLC H526 xenografts. The experiment in a line: tumor growth in xenograft-bearing nude mice. The conditions noted are these: for tumor size: micelle formulation (Kolliphor/TWEEN 80/PEG400/ethanol/D5W), BO-2768 at 20 mg/kg twice daily, FIG. 12, panel A. It is filed as in vivo. As for the experimental part:
Athymic nude mice bearing the nu/nu gene were obtained from the National Laboratory Animal Center (Taipei, Taiwan). Male nude mice (6 weeks or older weighing 20-24 g or more) were used for all human tumor xenografts. The tested compounds were intravenously administered through tail vein. Tumor volume was determined by measuring the length x width x height (or width) with calipers. […] For tumor-bearing nude mice during the course of the experiment, the % body weight changes refer to: (the total weight on reading day/the total weight on day treatment started)×100.
In all experiments, the tumor cells were subcutaneously implanted in nude mice, and the BO-2590L was administered via tail vein when the tumor size reaching approximate 100 mm^3. […]
To confirm the therapeutic activity of BO-2590L, comparative experiments carried out by known chemotherapeutic agents, such as vatanalib and cisplatin, were also performed. Briefly, the H526 xenograft-bearing mice were divided into 4 groups which were treated with vehicle, BO-2590L (10 mg/kg, QD×9), vatalanib (100 mg/kg, QD×9), and cisplatin (4 mg/kg, Q2D×3), respectively. Results are illustrated in FIG. 11.
Results are illustrated in FIGS. 12 and 13.

The test system of data set [8] is pEGFP-N1 plasmid DNA. The experiment in a line: DNA cross-linking, alkaline agarose gel electrophoresis. It is filed as biochemical. To be noted: FIG. 1; for formation of DNA interstrand crosslinks: 1-20 μM, 37° C., 2 hrs. The procedure: In the present example, BO-2590, BO-2577 (Formula I-A) and BO-2698, BO-2755, BO-2762 and BO-2768 (Formula I-B) were tested for their DNA crosslinking activity, in which the cross-linking was analyzed by alkaline agarose gel electrophoresis. In brief, purified pEGFP-N1 plasmid DNA (1,500 ng) was mixed with various concentrations (1-20 μM) of the tested compounds in 40 μL binding buffer (3 mM sodium chloride/1 mM sodium phosphate, pH 7.4, and 1 mM EDTA). The reaction mixture was incubated at 37° C. for 2 hrs. At the end of reaction, the plasmid DNA was linearized by digestion with BamHI and followed by precipitation with ethanol. The DNA pellets were dissolved and denatured in alkaline buffer (0.5 N NaOH-10mM EDTA). An aliquot of 20 μL of DNA solution (1,000 ng) was mixed with 4 μL of 6× alkaline loading dye and then electrophoretically resolved on a 0.8% alkaline agarose gel with NaOH-EDTA buffer at 4° C. The electrophoresis was carried out at 18V for 22 h. After staining the gels with an ethidium bromide solution, the DNA was visualized under UV light. Results are illustrated in FIG. 1.

Data set [9] has as its system H460 cell lines. The data set can be described thus: Annexin V staining assay. It is filed as cell-based, human. To be noted: 0.5, 1 and 2 μM, 48 hr; FIG. 7. The procedure:
In this example, Annexin V staining assay was used to assess BO-2590 induced apoptotic cell death in H460 cell lines. Briefly, H460 cells were treated with BO-2590 at the concentrations of 0.5, 1 and 2 μM for 48 hr and then stained with Annexin V-FITC and propidium iodide. The stained cells were analyzed by flow cytometry.

In data set [10] the test system is small cell lung cancer H526. The experiment in a line: in vitro cytotoxicity, PrestoBlue assay. To be noted: read-out: IC50 H526. The class given is cell-based, human.
The test system of data set [11] is H526 cell lines. The experiment in a line: Annexin V staining assay. The class given is cell-based. To be noted: 0.01-0.08 μM, 72-h treatment; FIG. 8. As for the experimental part:
In this example, the effect of BO-2768 was assessed in accordance with procedures of Example 4.7 except apoptotic cell death was determined in H526 cell lines. Briefly, H526 cells were treated with BO-2768 at the concentrations of 0.01, 0.02, 0.04 and 0.08 μM or with cisplatin at the concentrations of 2, 4, 8 and 16 μM for 24, 48 or 72 hrs and then stained with Annexin V-FITC and propidium iodide. The stained cells were analyzed by flow cytometry.

For the compound `Cc1c(CO)c(CO)c2c3ccccc3c(N3CCC(N4CCCCC4)CC3)nn12` [BO-2590, (6-([1,4′-Bipiperidin]-1′-yl)-3-methylpyrrolo[2,1-α]phthalazine-1,2-diyl)dimethanol], the IC50 in data set [1] was found to be 230 ± 30 nM; in [3], 600 ± 110 nM; in data set [4], 250 ± 40 nM; in data set [5] it was 400 ± 90 nM; in data set [10] (Table 2), 14 ± 4 nM. Further, in data set [2] (H526 xenograft mice), the “deleterious effects on the bodyweight of the test animals” value is “none”. Moreover, the “resistance factor (IC50 CEM/VBL vs IC50 of the parent cell line)” value in data set [4] is given as 1.09 ×. The “IC50 Paca SI” value in [6] came out at 300 ± 80 nM. The tumor size entry in data set [7] is “as effective as irinotecan and cisplatin in reducing the tumor size”. Besides, in data set [8], the “formation of DNA interstrand crosslinks” value is given as “induced DNA interstrand crosslinks”. In data set [8], the “cross-linker strength compared with melphalan” value was “relatively stronger cross-linker than that of melphalan”. Moreover, the “proportion of Annexin V+ cells” value in data set [9] is listed as “significantly increased the proportion of Annexin V^+ cells in a dose-dependent manner”.
Regarding `Cc1c(CO)c(CO)c2c3cc4ccccc4cc3c(N(C)C)nn12` [BO-2768, (6-(Dimethylamino)-3-methylbenzo[g]pyrrolo[2,1-α]phthalazine-1,2-diyl)dimethanol], the IC50 was 190 ± 10 nM in data set [1]; 1020 ± 160 nM in data set [3]; 100 ± 10 nM in data set [4]; 650 ± 20 nM in [5]; 50 ± 1 nM in [10] (Table 2); 40 ± 5 nM in data set [10] (Table 3). Further, the “body weight of the test animals” value in data set [2] (H211 xenograft mice, co-administration of BO-2768 and cisplatin, FIG. 14, panel B) is recorded as “without adversely affecting the body weight”. In [2] (H526 xenograft mice, 20 mg/kg twice per day, FIG. 13, panel B), the “effects on the bodyweight of the test animals” value is “without any deleterious effects on the bodyweight”. Further, in data set [2] (H526 xenograft mice), the “deleterious effects on the bodyweight of the test animals” value is recorded as “none”. For the same compound, in [4], the “resistance factor (IC50 CEM/VBL vs IC50 of the parent cell line)” value is listed as 0.53 ×. Further, the “IC50 Paca SI” value in [6] came out at 3980 ± 1040 nM. Besides, the “proportion of Annexin V+ cells” value in data set [11] is on record as “significantly increased the proportion of Annexin V^+ cells in a dose-dependent manner”. Moreover, the tumor growth entry in data set [7] (20 mg/kg twice per day, entire time of the study, FIG. 13, panel A) is on record as “completely suppress the growth of tumor”. The “tumor growth, dose dependence” value in [7] (FIG. 13, panel A) is reported as “suppressed tumor growth in a dose-dependent manner”. For the same compound, the tumor size entry in data set [7] is on record as “growth of tumor was completely suppressed”. Also, the “formation of DNA interstrand crosslinks” value in data set [8] is given as “induced DNA interstrand crosslinks”.

These data come from patent US11066412B2, “Substituted pyrrolo[2,1-a]phthalazines and benzo[g]pyrrolo[2,1-a]phthalazines for the treatment of cancer” (Academia Sinica, priority 2017, dated 2021).
